Laboratory results reported in US10124035B2, “DISC-1 pathway activators in the control of neurogenesis” (Massachusetts Institute of Technology, priority 2008, dated 2018).
“Also recorded” adds a separate entry of the source.

Columns and labels:
[1] = tested on: TCF reporter in 293T cells; assay: TCF reporter activity in DISC1 knockdown 293T cells with Wnt3a conditional medium; assay type: cell-based; settings: 16 hours
Procedure: Primary neural stem cells from E14 brains were infected with control or DISC1 shRNA lentiviruses. 48 hours after to transduction, cells were treated with vehicle or SB-216763 (5 μM) for 16 hours and then pulsed with 10 μM BrdU for 2 hours. Shown is percentage of GFP and BrdU double positive cells to total GFP positive cells (n=3, p<0.05). b. […] 1.5 μg of vector or WT-DISC1 was cotransfected with 0.5 μg control or DISC1 shRNA-2, 0.1 μg TCF reporter, and 10 ng pRL-TK vector into 293T cells. 48 hours after transfection, Wnt3a conditional medium with vehicle, SB-216763, or AR-A104418 was added for another 16 hours.
• Mice. Swiss Webster pregnant female mice were purchased from Taconic (Hudson, N.Y.). • Cell Culture. AHPs were kindly provided by Dr. Gage (Lie, D. C. et al. Wnt signaling to regulates adult hippocampal neurogenesis. Nature 437, 1370-5 (2005)) and cultured under conditions described previously (Palmer, T. D., Takahashi, J. & Gage, F. H. The adult rat hippocampus contains primordial neural stem cells. Mol Cell Neurosci 8, 389-404 (1997)). Primary neural progenitors were isolated from E14 mouse embryos and cultured as described previously (Sanada, K. & Tsai, L. H. G protein betagamma subunits and AGS3 control spindle orientation and asymmetric cell fate of cerebral cortical progenitors. Cell 122, 119-31 (2005)). N2a and 293T cells were cultured in DMEM medium containing 10% FBS, L-glutamine, and penicillin/streptomycin. Wnt3a expressing L cells and untransfected L cells were obtained from ATCC (Manassas, Va.). Wnt3a conditional medium was produced according to the ATCC protocol. To induce AHP differentiation, FGF2 was removed from the culture medium and 1 μM retinoic acid/1% FBS was added to the medium for 4 days. • Reagents. Recombinant Wnt3a protein was obtained from Chemicon (Rosemont, Ill.). FGF2 was obtained from PeproTech (Rocky Hill, N.J.). Recombinant GST-GSK3β was obtained from Active Motif (Carlsbad, Calif.). Recombinant GST-β-catenin and GST-axin were obtained from Millipore (Billerica, Mass.). […]

[2] = previously reported (Selenica et al. 2007); cited from earlier work

## Cn1cc(C2=C(c3ccc(Cl)cc3Cl)C(=O)NC2=O)c2ccccc21 [SB-216763]
[1]
  TCF reporter activity in DISC1 knockdown cells: rescued TCF activity in DISC1 knockdown cells to control levels; also recorded: rescues the TCF activation defect caused by DISC1 knockdown
[2]
  crossing of the blood-brain barrier: cross the blood-brain barrier
